Laboratory results: patent US6864046B1, “Method for collecting and preserving semen” (Texas Tech University, priority 2000, dated 2005)

The compounds below were run on spermatozoa. Details: calcium compound substituted for calcium chloride in Ringer's lactate; culturing 1-24 hr.

| Compound | semen function (percent motility, FIGS. 5a and 5b) |
| --- | --- |
| O=C([O-])[O-].[Ca+2] [calcium carbonate] | maintained best |
| calcium gluconate | maintained best |
| calcium phosphate | maintained best |
